Test results: patent publication US6339042B1, “Herbicidal N-cyclohexadienyl heteroaryloxyacetamides” (American Cyanamid Co., priority 1999, dated 2002)

Experiments:
[1] = system: Lolium perenne; experiment: Pre-emergence herbicidal evaluation, LOLPE; assay type: in vivo; conditions: three weeks after treatment
Source text: (§1) The treated pots are then placed on greenhouse benches, watered and cared for in accordance with conventional greenhouse procedures.

[2] = system: Setaria viridis; experiment: Post-emergence herbicidal evaluation, SETVI; conditions: three weeks after treatment
[3] = system: Zea mays; experiment: Post-emergence herbicidal evaluation, ZEAMX; conditions: three weeks after treatment
[4] = system: Triticum aestivum; experiment: Post-emergence herbicidal evaluation, TRZAW; conditions: three weeks after treatment
[5] = system: Echinochloa crus-galli; experiment: Pre-emergence herbicidal evaluation, ECHCG; assay type: in vivo; conditions: three weeks after treatment
Source text: as §1

[6] = system: Triticum aestivum; experiment: Pre-emergence herbicidal evaluation, TRZAW; assay type: in vivo; conditions: three weeks after treatment
Source text: as §1

[7] = system: Alopecurus myosuroides; experiment: Post-emergence herbicidal evaluation, ALOMY; conditions: three weeks after treatment
[8] = system: Alopecurus myosuroides; experiment: Pre-emergence herbicidal evaluation, ALOMY; assay type: in vivo; conditions: three weeks after treatment
Source text: as §1

[9] = system: Echinochloa crus-galli; experiment: Post-emergence herbicidal evaluation, ECHCG; conditions: three weeks after treatment
[10] = system: Hordeum vulgare; experiment: Pre-emergence herbicidal evaluation, HORVW; assay type: in vivo; conditions: three weeks after treatment
Source text: as §1

[11] = system: Amaranthus tuberculatus; experiment: Post-emergence herbicidal evaluation, AMATA; assay type: in vivo; conditions: three weeks after treatment
[12] = system: Setaria viridis; experiment: Pre-emergence herbicidal evaluation, SETVI; assay type: in vivo; conditions: three weeks after treatment
Source text: as §1

[13] = system: Hordeum vulgare; experiment: Post-emergence herbicidal evaluation, HORVW; conditions: three weeks after treatment
[14] = system: Apera spica venti; experiment: Post-emergence herbicidal evaluation, APESV; conditions: three weeks after treatment
[15] = system: Galium aparine; experiment: Post-emergence herbicidal evaluation, GALAP; conditions: three weeks after treatment
Experimental: The compounds of the invention are tested for pre- and post-emergence herbicidal activity.
(§2) Each pot is examined three weeks after treatment and phytotoxicity is assessed according to the rating system set forth below.
(§3) These acetone solutions are diluted with water and the resulting formulations applied at dosage levels equivalent of about 0.4 to 0.1 kg per hectare of test compound per pot. After spraying the plants are placed on greenhouse benches and are cared for in the usual manner, commensurate with conventional greenhouse practices.

[16] = system: Amaranthus tuberculatus; experiment: Pre-emergence herbicidal evaluation, AMATA; assay type: in vivo; conditions: three weeks after treatment
Source text: as §1

[17] = system: Lolium perenne; experiment: Post-emergence herbicidal evaluation, LOLPE; conditions: three weeks after treatment
[18] = system: Zea mays; experiment: Pre-emergence herbicidal evaluation, ZEAMX; assay type: in vivo; conditions: three weeks after treatment
Source text: as §1

[19] = system: Glycine max; experiment: Pre-emergence herbicidal evaluation, GLXMA; assay type: in vivo; conditions: three weeks after treatment
Source text: as §1

[20] = system: Glycine max; experiment: Post-emergence herbicidal evaluation, GLXMA; conditions: three weeks after treatment
Experimental: as §2, §3

[21] = system: Oryza sativum; experiment: Post-emergence herbicidal evaluation, ORYSA; conditions: three weeks after treatment
[22] = system: Apera spica venti; experiment: Pre-emergence herbicidal evaluation, APESV; assay type: in vivo; conditions: three weeks after treatment
Source text: as §1

[23] = system: Oryza sativum; experiment: Pre-emergence herbicidal evaluation, ORYSA; assay type: in vivo; conditions: three weeks after treatment
Source text: as §1

[24] = system: Galium aparine; experiment: Pre-emergence herbicidal evaluation, GALAP; assay type: in vivo; conditions: three weeks after treatment
Source text: as §1

CC1=CC(N(C)C(=O)COc2nnc(C(F)(F)F)s2)=CC(C)(C)C1 [Example 3]
1 (1 - Trace effect): phytotoxicity rating TRZAW ([4]; 0.200 kg/ha) | phytotoxicity rating TRZAW ([6]; 0.200 kg/ha) | phytotoxicity rating TRZAW ([6]; 0.400 kg/ha) | phytotoxicity rating ECHCG ([9]; 0.200 kg/ha) | phytotoxicity rating HORVW ([10]; 0.200 kg/ha) | phytotoxicity rating HORVW ([10]; 0.400 kg/ha) | phytotoxicity rating ZEAMX ([18]; 0.200 kg/ha) | phytotoxicity rating ORYSA ([23]; 0.100 kg/ha)
2 (2 - Slight effect): phytotoxicity rating HORVW ([13]; 0.400 kg/ha) | phytotoxicity rating GLXMA ([20]; 0.200 kg/ha) | phytotoxicity rating ORYSA ([21]; 0.400 kg/ha)
8 (8 - Approaching complete kill): phytotoxicity rating ECHCG ([5]; 0.200 kg/ha) | phytotoxicity rating ECHCG ([5]; 0.400 kg/ha) | phytotoxicity rating ALOMY ([8]; 0.200 kg/ha) | phytotoxicity rating ALOMY ([8]; 0.400 kg/ha) | phytotoxicity rating SETVI ([12]; 0.200 kg/ha) | phytotoxicity rating SETVI ([12]; 0.400 kg/ha) | phytotoxicity rating AMATA ([16]; 0.800 kg/ha) | phytotoxicity rating APESV ([22]; 0.400 kg/ha)
0 (0 - No effect): phytotoxicity rating SETVI ([2]; 0.200 kg/ha) | phytotoxicity rating SETVI ([2]; 0.400 kg/ha) | phytotoxicity rating ZEAMX ([3]; 0.200 kg/ha) | phytotoxicity rating ZEAMX ([3]; 0.400 kg/ha) | phytotoxicity rating TRZAW ([6]; 0.100 kg/ha) | phytotoxicity rating HORVW ([10]; 0.100 kg/ha) | phytotoxicity rating AMATA ([11]; 0.200 kg/ha) | phytotoxicity rating AMATA ([11]; 0.400 kg/ha) | phytotoxicity rating HORVW ([13]; 0.200 kg/ha) | phytotoxicity rating AMATA ([16]; 0.100 kg/ha) | phytotoxicity rating AMATA ([16]; 0.200 kg/ha) | phytotoxicity rating ZEAMX ([18]; 0.100 kg/ha) | phytotoxicity rating GLXMA ([19]; 0.100 kg/ha) | phytotoxicity rating GLXMA ([19]; 0.200 kg/ha) | phytotoxicity rating GLXMA ([19]; 0.400 kg/ha) | phytotoxicity rating GLXMA ([19]; 0.800 kg/ha) | phytotoxicity rating ORYSA ([21]; 0.200 kg/ha)
54 to 57 °C: melting point
6 (6 - Herbicidal effect): phytotoxicity rating ECHCG ([5]; 0.100 kg/ha) | phytotoxicity rating ALOMY ([8]; 0.100 kg/ha) | phytotoxicity rating SETVI ([12]; 0.100 kg/ha) | phytotoxicity rating APESV ([14]; 0.200 kg/ha) | phytotoxicity rating AMATA ([16]; 0.400 kg/ha) | phytotoxicity rating APESV ([22]; 0.200 kg/ha) | phytotoxicity rating ORYSA ([23]; 0.400 kg/ha) | phytotoxicity rating ORYSA ([23]; 0.800 kg/ha)
7 (7 - Good herbicidal effect): phytotoxicity rating LOLPE ([1]; 0.200 kg/ha) | phytotoxicity rating ALOMY ([7]; 0.400 kg/ha) | phytotoxicity rating LOLPE ([17]; 0.200 kg/ha) | phytotoxicity rating LOLPE ([17]; 0.400 kg/ha) | phytotoxicity rating ZEAMX ([18]; 0.800 kg/ha)
5 (5 - Definite injury): phytotoxicity rating GALAP ([15]; 0.400 kg/ha)
4 (4 - Injury): phytotoxicity rating ALOMY ([7]; 0.200 kg/ha) | phytotoxicity rating ECHCG ([9]; 0.400 kg/ha) | phytotoxicity rating HORVW ([10]; 0.800 kg/ha) | phytotoxicity rating GALAP ([15]; 0.200 kg/ha) | phytotoxicity rating GLXMA ([20]; 0.400 kg/ha)
9 (9 - Complete kill): phytotoxicity rating LOLPE ([1]; 0.400 kg/ha) | phytotoxicity rating LOLPE ([1]; 0.800 kg/ha) | phytotoxicity rating ECHCG ([5]; 0.800 kg/ha) | phytotoxicity rating ALOMY ([8]; 0.800 kg/ha) | phytotoxicity rating SETVI ([12]; 0.800 kg/ha) | phytotoxicity rating APESV ([22]; 0.800 kg/ha)
3 (3 - Moderate effect): phytotoxicity rating LOLPE ([1]; 0.100 kg/ha) | phytotoxicity rating TRZAW ([4]; 0.400 kg/ha) | phytotoxicity rating TRZAW ([6]; 0.800 kg/ha) | phytotoxicity rating APESV ([14]; 0.400 kg/ha) | phytotoxicity rating ZEAMX ([18]; 0.400 kg/ha) | phytotoxicity rating APESV ([22]; 0.100 kg/ha) | phytotoxicity rating ORYSA ([23]; 0.200 kg/ha)

CC1=CC(N(C(=O)COc2nc3ccccc3o2)C(C)C)=CC(C)(C)C1 [Example 17]
2 (2 - Slight effect): phytotoxicity rating TRZAW ([4]; 0.400 kg/ha) | phytotoxicity rating TRZAW ([6]; 0.200 kg/ha) | phytotoxicity rating TRZAW ([6]; 0.400 kg/ha) | phytotoxicity rating HORVW ([10]; 0.200 kg/ha) | phytotoxicity rating HORVW ([10]; 0.400 kg/ha) | phytotoxicity rating ORYSA ([23]; 0.100 kg/ha)
6 (6 - Herbicidal effect): phytotoxicity rating SETVI ([2]; 0.200 kg/ha) | phytotoxicity rating SETVI ([2]; 0.400 kg/ha) | phytotoxicity rating ECHCG ([5]; 0.200 kg/ha) | phytotoxicity rating ALOMY ([7]; 0.200 kg/ha) | phytotoxicity rating ALOMY ([8]; 0.200 kg/ha) | phytotoxicity rating ALOMY ([8]; 0.400 kg/ha) | phytotoxicity rating ECHCG ([9]; 0.400 kg/ha) | phytotoxicity rating APESV ([14]; 0.100 kg/ha) | phytotoxicity rating GLXMA ([20]; 0.400 kg/ha)
7 (7 - Good herbicidal effect): phytotoxicity rating ECHCG ([5]; 0.400 kg/ha) | phytotoxicity rating LOLPE ([17]; 0.200 kg/ha) | phytotoxicity rating APESV ([22]; 0.100 kg/ha)
4 (4 - Injury): phytotoxicity rating ECHCG ([5]; 0.100 kg/ha) | phytotoxicity rating TRZAW ([6]; 0.800 kg/ha) | phytotoxicity rating ECHCG ([9]; 0.200 kg/ha) | phytotoxicity rating HORVW ([10]; 0.800 kg/ha) | phytotoxicity rating AMATA ([11]; 0.200 kg/ha) | phytotoxicity rating GALAP ([15]; 0.400 kg/ha) | phytotoxicity rating AMATA ([16]; 0.100 kg/ha) | phytotoxicity rating LOLPE ([17]; 0.100 kg/ha) | phytotoxicity rating ORYSA ([21]; 0.400 kg/ha) | phytotoxicity rating ORYSA ([23]; 0.400 kg/ha) | phytotoxicity rating ORYSA ([23]; 0.800 kg/ha)
1 (1 - Trace effect): phytotoxicity rating ZEAMX ([3]; 0.400 kg/ha) | phytotoxicity rating TRZAW ([4]; 0.200 kg/ha) | phytotoxicity rating TRZAW ([6]; 0.100 kg/ha) | phytotoxicity rating HORVW ([10]; 0.100 kg/ha) | phytotoxicity rating GALAP ([15]; 0.100 kg/ha) | phytotoxicity rating ZEAMX ([18]; 0.400 kg/ha) | phytotoxicity rating GLXMA ([19]; 0.800 kg/ha)
9 (9 - Complete kill): phytotoxicity rating LOLPE ([1]; 0.200 kg/ha) | phytotoxicity rating LOLPE ([1]; 0.400 kg/ha) | phytotoxicity rating LOLPE ([1]; 0.800 kg/ha) | phytotoxicity rating ECHCG ([5]; 0.800 kg/ha) | phytotoxicity rating ALOMY ([8]; 0.800 kg/ha) | phytotoxicity rating AMATA ([16]; 0.800 kg/ha) | phytotoxicity rating APESV ([22]; 0.400 kg/ha) | phytotoxicity rating APESV ([22]; 0.800 kg/ha)
5 (5 - Definite injury): phytotoxicity rating LOLPE ([1]; 0.100 kg/ha) | phytotoxicity rating SETVI ([2]; 0.100 kg/ha) | phytotoxicity rating AMATA ([11]; 0.400 kg/ha) | phytotoxicity rating SETVI ([12]; 0.200 kg/ha) | phytotoxicity rating AMATA ([16]; 0.200 kg/ha) | phytotoxicity rating AMATA ([16]; 0.400 kg/ha)
8 (8 - Approaching complete kill): phytotoxicity rating ALOMY ([7]; 0.400 kg/ha) | phytotoxicity rating SETVI ([12]; 0.400 kg/ha) | phytotoxicity rating SETVI ([12]; 0.800 kg/ha) | phytotoxicity rating APESV ([14]; 0.200 kg/ha) | phytotoxicity rating APESV ([14]; 0.400 kg/ha) | phytotoxicity rating LOLPE ([17]; 0.400 kg/ha) | phytotoxicity rating APESV ([22]; 0.200 kg/ha)
3 (3 - Moderate effect): phytotoxicity rating ALOMY ([7]; 0.100 kg/ha) | phytotoxicity rating ALOMY ([8]; 0.100 kg/ha) | phytotoxicity rating ECHCG ([9]; 0.100 kg/ha) | phytotoxicity rating AMATA ([11]; 0.100 kg/ha) | phytotoxicity rating SETVI ([12]; 0.100 kg/ha) | phytotoxicity rating GALAP ([15]; 0.200 kg/ha) | phytotoxicity rating ZEAMX ([18]; 0.800 kg/ha) | phytotoxicity rating GLXMA ([20]; 0.100 kg/ha) | phytotoxicity rating GLXMA ([20]; 0.200 kg/ha) | phytotoxicity rating ORYSA ([21]; 0.200 kg/ha) | phytotoxicity rating ORYSA ([23]; 0.200 kg/ha)
0 (0 - No effect): phytotoxicity rating ZEAMX ([3]; 0.100 kg/ha) | phytotoxicity rating ZEAMX ([3]; 0.200 kg/ha) | phytotoxicity rating TRZAW ([4]; 0.100 kg/ha) | phytotoxicity rating HORVW ([13]; 0.100 kg/ha) | phytotoxicity rating HORVW ([13]; 0.200 kg/ha) | phytotoxicity rating HORVW ([13]; 0.400 kg/ha) | phytotoxicity rating GALAP ([24]; 0.100 kg/ha) | phytotoxicity rating GALAP ([24]; 0.200 kg/ha) | phytotoxicity rating GALAP ([24]; 0.400 kg/ha) | phytotoxicity rating GALAP ([24]; 0.800 kg/ha) | phytotoxicity rating ZEAMX ([18]; 0.100 kg/ha) | phytotoxicity rating ZEAMX ([18]; 0.200 kg/ha) | phytotoxicity rating GLXMA ([19]; 0.100 kg/ha) | phytotoxicity rating GLXMA ([19]; 0.200 kg/ha) | phytotoxicity rating GLXMA ([19]; 0.400 kg/ha) | phytotoxicity rating ORYSA ([21]; 0.100 kg/ha)
